# In patent US8633251B2, “Derivatives of aminoalkanols, method of obtaining of aminoalkanols and their use” (Uniwersytet Jagiellonski, priority 2008, dated 2014):
# Counter-ions that a name gives are not always drawn. Like-named read-outs stand apart in the source and are kept apart here.
# How the values were obtained:
# [1] = system: maximal electroshock seizures; assay: Maximum Electroshock Seizure (MES) test, mice; format: in vivo; settings: mice; for responders at 100 mg/kg / responders at 30 mg/kg / responders at 300 mg/kg: Mus musculus; for responders at 100 mg/kg: read-out: MES, No. of protected animals/No. of used animals (converted); for responders at 30 mg/kg / responders at 300 mg/kg: read-out: MES, No. of protected animals/No. of used animals
# Outline: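 Mice received compound in methylcellulose i.p. or p.o. at 30, 100 and 300 mg/kg, with some tests at 10 and 3 mg/kg. At 0.5 or 4 h, after tetracaine eye-drops, current was delivered through corneal electrodes (60 Hz, 0.2 s, 50 mA). Groups were one mouse at 30 and 300 mg/kg and three at 100 mg/kg.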
# neurotoxicity (rotarod) = assay: Neurotoxicity test (TOX), rotarod, mice; format: in vivo
# [2] = system: pentylenetetrazol-induced seizures; assay: Subcutaneous Metrazol Test (ScMet), mice; format: in vivo
# Experimental: In order to define anticonvulsant activity, screening tests were performed, using animal models of seizures. […] The tests were based on administration of a compound to an animal and after certain time inducing state similar to epilepsy attack in human. Each substance (after dissolving in methylcellulose) was normally tested in doses 30, 100, and 300 mg/kg body weight (b.w.) (mice) or in 30 and 50 mg/kg b.w. (rats) in two possible routes of administration: intraperitoneal (i.p.) or oral (p.o.). Appropriate tests were performed 0.5 and 4 h after administration of the compound. […] (mice) the tests were also performed in doses 10 and 3 mg/kg b.w.
# Subcutaneous Metrazol Test (ScMet) is a chemical test, where compounds are tested for activity in absence seizures (petit mal epilepsy). Pentetrazol (metrazol) is considered to block chloride channel in the GABAA receptor complex, therefore at a certain dose in animals it causes myoclonic jerks, next—clonic seizures, and then tonic seizures. The procedure consists in administration of a tested compound and after 0.5 or 4 h subcutaneous administration of pentylenetetrazol in the dose of 85 mg/kg b.w. (mice) or 70 mg/kg b.w. (rats) in a 0.85% solution in 0.9% NaCl. […] Normally the test is performed in single animals.
# [3] = system: maximal electroshock seizures; assay: Maximum Electroshock Seizure (MES) test, rats; format: in vivo; settings: 0.25 h
# Experimental: In order to define anticonvulsant activity, screening tests were performed, using animal models of seizures. […] The tests were based on administration of a compound to an animal and after certain time inducing state similar to epilepsy attack in human. Each substance (after dissolving in methylcellulose) was normally tested in doses 30, 100, and 300 mg/kg body weight (b.w.) (mice) or in 30 and 50 mg/kg b.w. (rats) in two possible routes of administration: intraperitoneal (i.p.) or oral (p.o.). […] […] (mice) the tests were also performed in doses 10 and 3 mg/kg b.w.
# Maximum Electroshock Seizure (MES) test is an electric test, verifying activity towards generalized tonic-clonic seizures (grand mal epilepsy). […] Its procedure consists in administration to an animal a mentioned dose, […] (after anesthetic eye-drops: 0.5% tetracaine hydrochloride in 0.9% NaCl) and turning on electric current (60 Hz, 0.2 s, 50 mA (mice) or 150 mA (rats)). […]
# [4] = system: pilocarpine induced status epilepticus; assay: Status epilepticus prevention (pilocarpine), rats; format: in vivo, Sprague Dawley albino rat; settings: i.p.
# Experimental: Status epilepticus prevention—an animal (Sprague Dawley albino rat male) is given a dose of tested substance. After 0, 0.25, 0.5, 1, 2, and 4 h pilocarpine is administered. The seizures induced are described by Racine's score. Compounds 27 and 28 were administered i.p. in doses 25 and 45 mg/kg b.w. respectively. […] Average body weight loss is measured 24 h after administration.
# [5] = dose 100 mg/kg b.w., time 0.5 h
# [6] = mice, dose 100 mg/kg b.w., time 0.5 h
# [7] = mice, dose 100 mg/kg b.w., time 4 h
# [8] = mice, dose 300 mg/kg b.w., time 0.5 h
# [9] = mice, dose 100 mg/kg b.w., 0.5 h
# [10] = mice, dose 300 mg/kg b.w., 0.5 h
compound,measurement,setting,value
"Cc1cccc(C)c1OCCNCCCCCO (as salt: hydrochloride) [Compound 17, 5N-[(2,6-dimethylphenoxy)ethyl]amino-1-pentanol hydrochloride]",melting point,,138 to 140 °C
"Cc1cccc(C)c1OCCNC(C)(C)CCO (as salt: hydrochloride) [Compound 15, 3N-[(2,6-dimethylphenoxy)ethyl]amino-3-methyl-1-butanol hydrochloride]",melting point,,170 to 172 °C
"Cc1cccc(OCCCNC(C)(C)CO)c1C [Compound 47, 2N-[(2,3-dimethylphenoxy)propyl]amino-2-methyl-1-propanol]",melting point,,128 to 130 °C
same,responders at 100 mg/kg,[1]; [5],100%
same,"TOX, No. of animals exhibiting motor impairment/no. of used animals",neurotoxicity (rotarod); [6],8/8
same,"TOX, No. of animals exhibiting motor impairment/no. of used animals",neurotoxicity (rotarod); [7],4/4
same,"TOX, No. of animals exhibiting motor impairment/no. of used animals",neurotoxicity (rotarod); [8],4/4
"Cc1cccc(C)c1OCCCN[C@H](C)CO (as salt: hydrochloride) [Compound 52, R-(−)-2N-[(2,6-dimethylphenoxy)propyl]amino-1-propanol hydrochloride]",melting point,,119 to 120 °C
"Cc1cccc(C)c1OCCNC[C@@H](C)O [Compound 10, R-(−)-1N-[(2,6-dimethylphenoxy)ethyl]amino-2-propanol]",melting point,,76 to 77 °C
same,responders at 30 mg/kg,"[1]; dose 30 mg/kg b.w., time 0.5 h",100%
same,responders at 100 mg/kg,"[1]; dose 100 mg/kg b.w., time 4 h",100%
same,"TOX, No. of animals exhibiting motor impairment/no. of used animals","neurotoxicity (rotarod); mice, dose 30 mg/kg b.w., time 0.5 h",1/4
same,"TOX, No. of animals exhibiting motor impairment/no. of used animals",neurotoxicity (rotarod); [6],8/8
same,"TOX, No. of animals exhibiting motor impairment/no. of used animals",neurotoxicity (rotarod); [7],1/3
same,"TOX, No. of animals exhibiting motor impairment/no. of used animals",neurotoxicity (rotarod); [8],4/4
"Cc1cccc(C)c1OCCN[C@H](CO)C(C)C (as salt: hydrochloride) [Compound 16, L-2N-[(2,6-dimethylphenoxy)ethyl]amino-3-methyl-1-butanol hydrochloride]",melting point,,162 to 164 °C
"Cc1cccc(C)c1OCC(=O)N[C@H](C)C(N)=O [Compound 65, D-2N-[(2,6-dimethylphenoxy)acetyl]aminopropionamide]",responders at 30 mg/kg,"[2]; Mus musculus, sc, dose 30 mg/kg b.w., 4 h, read-out: ScMet, No. of protected animals/No. of used animals (converted)",20%
same,melting point,,177 to 178 °C
same,responders at 300 mg/kg,"[1]; dose 300 mg/kg b.w., 0.5 h",100%
same,"TOX, No. of animals exhibiting motor impairment/no. of used animals",neurotoxicity (rotarod); [9],2/8
same,"TOX, No. of animals exhibiting motor impairment/no. of used animals",neurotoxicity (rotarod); [10],1/4
"Cc1cccc(C)c1OCCCNC(C)(C)CO [Compound 53, 2N-[(2,6-dimethylphenoxy)propyl]amino-2-methyl-1-propanol]",melting point,,73 to 75 °C
same,responders at 100 mg/kg,"[1]; dose 100 mg/kg b.w., 0.5 h",100%
same,"TOX, No. of animals exhibiting motor impairment/no. of used animals","neurotoxicity (rotarod); mice, dose 30 mg/kg b.w., 0.5 h",1/4
same,"TOX, No. of animals exhibiting motor impairment/no. of used animals",neurotoxicity (rotarod); [9],8/8
same,"TOX, No. of animals exhibiting motor impairment/no. of used animals",neurotoxicity (rotarod); [10],4/4
"Cc1cccc(C)c1OCCNC(C)CO (stereo not shown) [Compound 11, R,S-2N-[(2,6-dimethylphenoxy)ethyl]amino-1-propanol]","ED50 (MES, rats, p.o., 0.25 h)",[3]; p.o.,47.03 mg/kg b.w.
same,"MES, No. of protected animals/No. of used animals","[1]; dose 30 mg/kg b.w., time 0.5 h",1/1
same,"TOX, No. of animals exhibiting motor impairment/no. of used animals","neurotoxicity (rotarod); mouse, in vivo, 30 mg/kg",2/4
same,"TOX, No. of animals exhibiting motor impairment/no. of used animals","neurotoxicity (rotarod); mouse, in vivo, 100 mg/kg",8/8
same,"TOX, No. of animals exhibiting motor impairment/no. of used animals","neurotoxicity (rotarod); mouse, in vivo, 300 mg/kg",4/4
"CC[C@H](CO)NCCOc1c(C)cccc1Cl [Compound 27, R-(−)-2N-[(2-chlor-6-methylphenoxy)ethyl]amino-1-butanol]","MES, No. of protected animals/No. of used animals","[1]; dose 30 mg/kg b.w., time 0.5 h",1/1
same,"MES, No. of protected animals/No. of used animals",[1]; [5],1/1
same,Average weight loss ± S.E.M.,"[4]; body weight loss 24 h after administration, 25 (27) or 45 (28) mg/kg b.w.",8.3 ± 7.1
same,protection in status epilepticus prevention,[4]; 25 (27) and 45 (28) mg/kg b.w.,2 rats out of 8
same,Protection,"[4]; rats protected/tested, time 0 h, dose 25 (27) or 45 (28) mg/kg b.w.",2/8
same,"TOX, No. of animals exhibiting motor impairment/no. of used animals",neurotoxicity (rotarod); [6],8/8
same,"TOX, No. of animals exhibiting motor impairment/no. of used animals",neurotoxicity (rotarod); [8],4/4
"Cc1cccc(C)c1OCC(=O)N[C@H]1CC[C@H](O)CC1 [Compound 64, trans-4N-[(2,6-dimethylphenoxy)acetyl]amino-1-cyclohexanol]",responders at 300 mg/kg,"[2]; Mus musculus, sc, dose 300 mg/kg b.w., 0.5 h, read-out: ScMet, No. of protected animals/No. of used animals",100%
same,melting point,,161 to 162 °C
same,responders at 100 mg/kg,"[1]; dose 100 mg/kg b.w., 0.5 h",100%
same,responders at 300 mg/kg,"[1]; dose 300 mg/kg b.w., 0.5 h",100%
same,"TOX, No. of animals exhibiting motor impairment/no. of used animals",neurotoxicity (rotarod); [9],7/8
same,"TOX, No. of animals exhibiting motor impairment/no. of used animals",neurotoxicity (rotarod); [10],4/4
"CCC(O)CNC(=O)COc1c(C)cccc1Cl (stereo not shown) [Compound 72, R,S-1N-[(2-chlor-6-methylphenoxy)acetyl]amino-2-butanol]","ScMet, No. of protected animals/No. of used animals","[2]; dose 300 mg/kg b.w., 0.5 h",1/1
same,"MES, No. of protected animals/No. of used animals","[1]; dose 300 mg/kg b.w., 0.5 h",1/1
same,"TOX, No. of animals exhibiting motor impairment/no. of used animals",neurotoxicity (rotarod); [10],4/4
"Cc1cccc(C)c1OCCN[C@@H](C)CO [Compound 13, S-(+)-2N-[(2,6-dimethylphenoxy)ethyl]amino-1-propanol]","ED50 (MES, rats, i.p., 0.25 h)",[3]; i.p.,6.50 mg/kg b.w.
same,"MES, No. of protected animals/No. of used animals","[1]; dose 10 mg/kg b.w., time 0.5 h",2/4
same,"MES, No. of protected animals/No. of used animals","[1]; dose 30 mg/kg b.w., time 0.5 h",1/1
same,"ED50 (MES, mice, i.p., 0.25 h)","[1]; i.p., 0.25 h",8.59 mg/kg b.w.
same,"TOX, No. of animals exhibiting motor impairment/no. of used animals","neurotoxicity (rotarod); mouse, in vivo, 100 mg/kg",8/8
same,"TOX, No. of animals exhibiting motor impairment/no. of used animals","neurotoxicity (rotarod); mouse, in vivo, 300 mg/kg",4/4
"CCC(NC(=O)COc1c(C)cccc1C)C(N)=O (racemic) [Compound 66, D,L-2N-[(2,6-dimethylphenoxy)acetyl]aminobutyramide]",melting point,,182 to 184 °C
"Cc1cccc(C)c1OCCNC[C@H](O)c1ccccc1 [Compound 20, R-(−)-2N-[(2,6-dimethylphenoxy)ethyl]amino-1-phenylethanol]",melting point,,78 to 80 °C
same,responders at 30 mg/kg,"[1]; dose 30 mg/kg b.w., time 0.5 h",100%
same,"TOX, No. of animals exhibiting motor impairment/no. of used animals",neurotoxicity (rotarod); [6],8/8
same,"TOX, No. of animals exhibiting motor impairment/no. of used animals",neurotoxicity (rotarod); [8],4/4
